Data: patent US20250251402A1, “METHODS OF DETECTING MOLECULAR AGGREGATES USING IMAGE CORRELATION SPECTROSCOPY (ICS)” (The General Hospital Corporation, priority 2022, published 2025)
“Also recorded” adds a separate entry of the source.

Key:
Format in all cases: cell-based
7 cell lines = experiment: γH2AX immunofluorescence DA and intensity in 7 cell lines; settings: all cell lines, 1 μM PARPi overnight
Experimental: (§1) Cells were plated in 8-well […] slides (Thermo or Ibidi) to achieve 50% confluence overnight. Cells were then treated and fixed with 4% paraformaldehyde in PBS at room temperature for 10 minutes. Antibody staining was performed according to the manufacturers protocol. Following fluorescent secondary antibody labeling, prolong gold with DAPI (Cell Signaling Technologies) was added and samples were stored for up to 1 week prior to imaging.
ICS analysis was performed in MATLAB as previously described (41). Briefly, nuclei were segmented from the DAPI channel with the MATLAB function, imbinarize, converting the greyscale image to a binary dependent on an automatically defined threshold. The MATLAB function, regionprops, was used to identify single nuclei as objects. Each nucleus was used as a mask to perform ICS analysis on the antibody-stained channel, within size limitations for a nucleus (objects >400 and <3000 pixels). To ensure the analysis of antibody stained nuclei, nuclei under an average intensity of 200 au after background subtraction were excluded. The spatial autocorrelation functions were calculated using Fourier methods, then fit to a 2D Gaussian using a nonlinear least-squares algorithm (41). Using the outputs of the fitting, the mean number of independent emitting fluorescent entities per focal spot area and subsequently the DA were determined (59). […]

HT1080 cells [1] = experiment: γH2AX immunofluorescence ICS DA and nuclear intensity in HT1080 cells
Experimental: as §1
ICS analysis was performed in MATLAB as previously described (41). Briefly, nuclei were segmented from the DAPI channel with the MATLAB function, imbinarize, converting the greyscale image to a binary dependent on an automatically defined threshold. The MATLAB function, regionprops, was used to identify single nuclei as objects. Each nucleus was used as a mask to perform ICS analysis on the antibody-stained channel, within size limitations for a nucleus (objects >400 and <3000 pixels). To ensure the analysis of antibody stained nuclei, nuclei under an average intensity of 200 au after background subtraction were excluded. The spatial autocorrelation functions were calculated using Fourier methods, then fit to a 2D Gaussian using a nonlinear least-squares algorithm (41). Using the outputs of the fitting, the mean number of independent emitting fluorescent entities per focal spot area and subsequently the DA were determined (59). DA measurements across experiments were normalized by the control in each dataset. […] Any DA values exceeding 3 standard deviations from the mean were defined as incorrectly segmented and removed. Data were plotted in Prism and analysis performed in Prism or Excel.

HCC1937 cells = experiment: 53BP1-mApple condensate anisotropy (homo-FRET) and intensity in HCC1937 cells; settings: HCC1937, 1 μM PARPi and 100 μM TMZ for 1 hour
Experimental: All fluorescence imaging was performed on an Olympus FV1000 multiphoton/confocal microscope. Anisotropy measurements were performed through custom modifications to the imaging system as previously described (30). Briefly, linear polarization of two photon excitation light at 910 nm (MaiTai femtosecond laser, Spectra Physics) was controlled by a glan-thompson prism and half wave plate. […] was collected in orthogonal orientations through two detectors, parallel and perpendicular to excitation polarization, through a polarizing beam splitter that replaced a dichroic mirror in the emission filter cube. The alignment and detector gain and noise were validated each imaging session through measurements of a standard slide. Images were taken with an Olympus 25× XLPlan N objective, NA 1.05, and 3× digital zoom. Confocal imaging was performed with an Olympus XLUMPlanFL N 20× objective, NA 1.00 with chromatic correction, and 3× digital zoom.
Cells were grown on 12 mm round, uncoated, sterilized glass coverslips in 24-well plates for 24 hours. Cells were treated with PARPi and 100 μM TMZ for 1 hour or 10 nM GMX1778 overnight followed by 100 μM TMZ for 1 hour. TMZ was added to stimulate new DNA damage induced condensates in the presence of PARPi or NAD″ depletion. Cells were then transferred to the microscope for anisotropy imaging. Images were analyzed in MATLAB. Nuclei were segmented through intensity thresholding and condensates were segmented through further intensity thresholding with a higher threshold. Values of segmented nuclei and condensates were determined through the regionprops function. Segmentation was corrected through area restrictions to ensure that regions of interest were isolated condensates. The thresholding parameters were consistent throughout experiments. The average intensity and anisotropy of each segmented nuclei or condensate was then calculated. Data were plotted in Prism and analysis performed in Prism or Excel.

HT1080 cells [2] = experiment: Dose response cell viability (Presto Blue) in HT1080 cells; settings: HT1080, 100 nM PDD00017273
Experimental: Cells were plated in a 96-well plate at 2×10^3 cells per well and treated with drug for 5 days in three replicate wells. Cell viability was then determined using Presto Blue (Thermo Fisher). Signal was averaged over 3 replicate wells and normalized to blank (no cells) as well as to the levels of untreated wells. A sigmoidal response curve was fit to the average of two experiments in Prism. PARPi z score was calculated for each PARPi using 9 cell lines. The average z score over three PARPi (veliparib, olaparib, talazoparib) was then determined as a representation of cell line PARPi sensitivity.

Cn1ncnc1[C@H]1c2n[nH]c(=O)c3cc(F)cc(c23)N[C@@H]1c1ccc(F)cc1 [talazoparib]
γH2AX levels (intensity) over control (7 cell lines): increased γH2AX levels
γH2AX levels measured by intensity (HT1080 cells [1]; HT1080, 1 μM PARPi overnight): high levels of γH2AX
53BP1-mApple condensate anisotropy vs control (HCC1937 cells): significantly lower condensate anisotropy compared to control

PDD00017273
γH2AX DA induced by 1 μM veliparib or talazoparib, with vs without PDD00017273 (HT1080 cells [1]; HT1080, 100 nM PDD00017273 overnight): did not alter the veliparib or talazoparib induced γH2AX DA; also recorded: no significant differences
HT1080 dose response to veliparib, with vs without PDD00017273 (HT1080 cells [2]): did not impact HT1080 response to veliparib
